{"source": "patent US9493833B1", "about": "“Methods for preventing induced synthesis of proteasomes in human cells” (THE REGENTS OF THE UNIVERSITY OF CALIFORNIA, priority 2009, dated 2016)", "key": {"[1]": {"test_system": "PSM genes (PSMA7, PSMB4, PSMB7, PSMC1, PSMC4, PSMD1, PSMD12)", "assay": "mRNA levels of representative PSM genes by quantitative RT-PCR in LNCaP and HT-29 cells treated with proteasome inhibitors or MLN4924", "format": "cell-based, human", "details": "10 hrs, normalized to GAPDH, DMSO set to 1", "experimental": "(§1) The human prostate cancer LNCaP and colon cancer HT29 cell lines were incubated with different proteasome inhibitors (MG132, YU101, and bortezomib) or the Nedd8 pathway inhibitor MLN4924 (Soucy et al., 2009, Nature, 458, 732-736). Prostate cancer LNCaP and colon cancer HT-29 cells were treated with the indicated concentrations of proteasome inhibitors (MG132, YU101, and Bortezomib) or the Nedd8 pathway inhibitor (MLN4924) for 10 hrs, and mRNA levels of representative PSM genes were analyzed by quantitative RT-PCR (FIGS. 1A-1C). The values were normalized to GAPDH and for each cell line the DMSO treated sample was set to 1. Error bars denote SD (n=3). […] MLN4924 works by inhibiting the Nedd8-activating enzyme, the result of which is the accumulation of cullin-RING ligase (CRL) substrates (Soucy et al., 2009).\n(§2) RNA was isolated using the RNeasy kit (Qiagen). cDNA was prepared using the Superscript III first strand synthesis kit (Invitrogen) according to the manufacturer's recommendations. Quantitative PCR (qPCR) was performed using the SYBR GreenER supermix (Invitrogen)."}, "NQO1": {"test_system": "NQO1", "assay": "NQO1 mRNA level by quantitative RT-PCR in LNCaP and HT-29 cells", "format": "cell-based, human", "details": "10 hrs, same treatment conditions", "experimental": "as §1, §2"}, "proteasome": {"molecular_target": "T1, proteasome (Mus musculus, UniProt O09061+O55234)", "T1 construct": "endogenous in cells; host or cells: WT and Nrf1-/- mouse embryonic fibroblasts, immortalized with shRNA against p19ARF", "assay": "Proteasome activity recovery assay in WT and Nrf1−/− MEFs", "format": "cell-based", "details": "YU101 300 nM 1 hr then wash-off, single-phase exponential curve fit", "experimental": "Cells were frozen at different time points as indicated and were used for proteasome activity assays as described herein. For each time point, the results are normalized to DMSO-treated control in the case of hatched lines and to CHX-treated control in the case of solid lines. Error bars denote SD (n=3). […] The results were normalized to DMSO-treated control for each cell type. Error bars denote S.E.M. (n=2). […] The next day, the cells were treated with indicated concentrations of YU101 and the pan-caspase inhibitor Z-VAD-FMK, and further incubated for 72 hrs. The cell viability was then assessed using the CellTiter-Glo method (FIG. 12A). The results were normalized to DMSO-treated control which was set to 100% in each case. Error bars denote S.E.M. (n=2). […] The cell lysates were used for immunoblotting to detect the levels of Nrf1 (with the antibody raised against N-terminus) and cleaved caspase-3. β-actin protein levels were used as loading control. […] The cells were then washed with PBS thrice and allowed to recover in fresh medium. At definite time points, the cells were freeze-thawed in TE buffer (20 mM Tris pH 8, 5 mM EDTA) and subsequently used for measuring proteasome activity as described previously (Demo et al., 2007)."}, "cleaved caspase-3": {"test_system": "cleaved caspase-3", "assay": "Immunoblot of cleaved caspase-3 in MDA-MB-231 and U2OS cells", "format": "cell-based, human", "details": "Nrf1-depleted cells; YU101 48 hrs (MDA-MB-231) or 24 hrs (U2OS)", "experimental": "(§3) HT29 cells were treated with either MG132 (2 μM), YU101 (100 nM) or Bortezomib (40 nM) for 1 hr after which the drugs were washed off and the cells were allowed to recover in the absence or presence of 50 μg/ml cycloheximide (CHX) (FIG. 11A). Cells were frozen at different time points as indicated and were used for proteasome activity assays as described herein. For each time point, the results are normalized to DMSO-treated control in the case of hatched lines and to CHX-treated control in the case of solid lines. Error bars denote SD (n=3). WT and Nrf1^−/− MEFs were treated with either MG132 (50 μM) or YU101 (300 nM) for an hour after which the drugs were washed off and proteasome activity was measured for cells collected at different time points as indicated (FIG. 11A). […] The results were normalized to DMSO-treated control for each cell type. Error bars denote S.E.M. (n=2). MDA-MB-231 and U2OS cells were transduced with retrovirus expressing either sh-Nrf1 or vector control, and 48 hrs later were seeded in to 96-well plates. The next day, the cells were treated with indicated concentrations of YU101 and the pan-caspase inhibitor Z-VAD-FMK, and further incubated for 72 hrs. The cell viability was then assessed using the CellTiter-Glo method (FIG. 12A). The results were normalized to DMSO-treated control which was set to 100% in each case. Error bars denote S.E.M. (n=2). […]"}, "[2]": {"test_system": "MDA-MB-231 and U2OS cells", "assay": "CellTiter-Glo cell viability with YU101, sh-Nrf1 and Z-VAD-FMK", "format": "cell-based, human", "details": "72 hrs", "experimental": "as §3, with “MDA-MB-231 and U2OS cells were transduced with retrovirus expressing either sh-Nrf1 or vector control, and 48 hrs later were seeded in to 96-well plates. The next day, the cells were treated with indicated concentrations of YU101 and the pan-caspase inhibitor Z-VAD-FMK, and further incubated for 72 hrs.” left out, “12A).” for “12A). The results were normalized to DMSO-treated control which was set to 100% in each case. Error bars denote S.E.M. (n=2).”\nCells in 96-well plates were treated with different agents as required and cell viability was assessed using the Cell-Titer Glo kit (G7572; Promega) according to the protocol recommended by the manufacturer. By employing a luminescence read-out, this kit quantifies the level of ATP which is proportional to the number of viable cells."}}, "note": "Where a SMILES comes first, the peptide text is derived from it. The star is where a group is joined. Cbz = O=C(OCc1ccccc1)*; CH2F = FC*", "data": [{"smiles": "NS(=O)(=O)OC[C@@H]1C[C@@H](n2ccc3c(N[C@H]4CCc5ccccc54)ncnc32)C[C@@H]1O", "note": "[MLN4924]", "values": [{"measurement": "mRNA levels of PSM genes", "setting": "[1]", "result": "failed to appreciably induce the PSM genes"}, {"measurement": "NQO1 mRNA (Nrf2 target gene)", "setting": "NQO1", "result": "activation of its downstream target genes, as observed for NQO1"}]}, {"smiles": "CC(=O)NC(CCc1ccccc1)C(=O)NC(CC(C)C)C(=O)NC(Cc1ccccc1)C(=O)NC(CC(C)C)C(=O)C1(C)CO1", "note": "(stereo not shown) [YU101]", "values": [{"measurement": "mRNA levels of PSM genes", "setting": "[1]", "result": "robustly induce mRNA levels of several PSM genes"}, {"measurement": "time taken to recover half of the inhibited activity", "setting": "proteasome; Nrf1−/− MEFs", "result": "15.96 ± 5.49", "unit": "h"}, {"measurement": "time taken to recover half of the inhibited activity", "setting": "proteasome; WT MEFs", "result": "6.92 ± 1.64", "unit": "h"}, {"measurement": "level of cleaved caspase-3", "setting": "cleaved caspase-3", "result": "elicited an enhanced level of cleaved caspase-3"}]}, {"smiles": "COC(=O)C[C@H](NC(=O)[C@H](C)NC(=O)[C@@H](NC(=O)OCc1ccccc1)C(C)C)C(=O)CF", "note": "[Z-VAD-FMK] (Cbz-Val-Ala-Asp(OMe)-CH2F)", "values": [{"measurement": "effect of co-treatment on sensitization to YU101 killing", "setting": "[2]", "result": "this effect was blunted"}]}]}
